# Experimental data from patent publication US11207427B2, “System and method for diagnosis of astrocytic brain tumor” (Dignity Health, priority 2012, dated 2021).
# “Also recorded” adds a separate entry of the source.
# Experiments:
# [1] = system: CD20 positive lymphoma cells (MC116); experiment: SR101 / fixable SR101 staining and CD20 co-labeling in CNS lymphoma xenograft acute slices, confocal stereology; format: cell-based, human CNS lymphoma cells implanted in nude rats
# Experimental: Xenograft acute slices were incubated with the fixable version of SR101 (Texas Red Hydrazide; Sigma), washed at room temperature, and fixed with 4% paraformaldehyde for 12 hours at 4 degrees C. Slices were then rinsed in phosphate buffered saline, permeabilized with 0.3% triton, and blocked with CAS block (Invitrogen) (reference Pierre's paper). GBM xenograft slices were incubated 12-hours in anti-GFAP primary antibody (Millipore; 1:500), and Lymphoma sections were incubated 12-hours in anti-CD20 primary antibody (Millipore; 1:250). Sections were then rinsed and incubated with AlexaFluor488 secondary antibody (Invitrogen), followed by nuclear counterstaining with Dapi (Invitrogen). […]
# We randomly selected one rostral, midline, and caudal acute slice from each brain containing tumor incubated with fixable SR101. […] Cells within the dissector, and those in contact with its left and bottom edges were counted for either GFAP or CD20 positivity, and for SR101 positivity. The percent overlap between immunostaining and SR101 positivity was calculated. […]
# (§1) Next, we incubated acute slices from astrocytoma and CNS lymphoma animal models with fixable-SR101 and quantified the staining localization to GFAP for astrocytoma slices and CD20 for lymphoma slices. We adapted standard stereology approaches to quantify tumor cells labeled with fixable-SR101 and GFAP or CD20 antibodies. […]
# [2] = system: human glioma cell line U251; experiment: In vitro SR101 labeling of cultured astrocytoma cells; format: cell-based; conditions: 5 uM SR101, 20 minutes, DIC imaging with fluorescence overlay
# Experimental: We acquired human glioma cell line U251 and human CNS lymphoma cell line MC116 from ATCC. Cells were maintained in culture with DMEM media supplemented with 10% FBS, and RPMI media supplemented with 20% FBS respectively (all from Invitrogen, Grand Island, N.Y.). Cells were grown at 37° C. in a humidified incubator under 5% CO2.
# We labeled U251 glioma cells by seeding a collagen-coated glass-bottom dish (MatTek) with 100,000 cells. After 24 hours, media was replaced with aCSF containing 5 uM SR101 (Sigma) for 20 minutes, followed by two 5 minute washes with standard aCSF.
# (§2) SR101-labeled samples were placed in uncoated No. 1.5 glass-bottom dishes and positioned on the stage of a Zeiss 710 laser scanning confocal microscope equipped with a 40×/1.2 NA water emersion objection. We imaged SR101 by exciting the fluorophore with a 561 nm diode laser and collecting 595 nm-625 nm emission. The confocal aperature was set to Airy unit for all imaging. The laser and gain values were set to fill the dynamic range of the photomultiplier tube, and the frame size was set to sample at nyquist. Images were collected in 8 and 12 bit format absent of non-linear processing. An unstained adjacent tissue sample was imaged with each sample. In some cases, large field-of-view tiled and optically sectioned images were rapidly acquired using a Zeiss line-sweeping confocal microscope. […]
# [3] = system: U251 derived tumor; experiment: SR101 staining of acute slices from U251 rodent xenografts, confocal imaging; format: cell-based, human astrocytoma cells implanted in nude rats
# Experimental: Animals were anesthetized by intramuscular injection of a mixture of 10 mg/kg xylazine and 80 mg/kg ketamine (Wyeth, Madison, N.J.) and placed in a small animal stereotactic headframe (Model 900, David Kopf Instruments, Tujunga, Calif.). A 10-mm incision was made starting between the animal's eyes, exposing bregma. A bur hole was made 3.5 mm lateral to bregma. U251 or MC116 cells were infused at a depth of 4.5 mm below the surface of the brain after the syringe (Hamilton) was advanced 5.0 mm to create a 0.5-mm pocket. The cell suspension was infused using a UMP3-1 UltraMicroPump microinjector (WPI, Sarasota, Fla.) set to a volume of […] with an infusion rate of 3.00 μL/minute. The needle was withdrawn 2 minutes after the injection to minimize backflow of the cell suspension. The bur hole was covered with bone wax and the skin incision was sutured.
# Twenty days post-implantation, rats were deeply anesthetized using the xylazine/ketamine mixture as described previously. Animals were rapidly decapitated, brains were removed, and coronal cortical slices (350 μm thick) were cut on a vibratome (Trent's aCSF protocol). Slices were then incubated at room temperature in aCSF containing 5 uM SR101 for 20 minutes followed by a 10 minute wash in aCSF.
# as §2
# [4] = system: human brain tumor biopsies; experiment: SR101 staining of fresh human brain tumor biopsies, confocal imaging; format: cell-based
# Experimental: This research was approved by the institutional review board at St. Joseph's Hospital and Medical Center and all surgery was performed at the Barrow Neurological Institute. All subjects were consented pre-operatively for participation. Samples were obtained at the time of craniotomy from within the tumor mass at a location determined to be safe by the surgeon. The samples, averaging 4×2×2 mm in size, were transferred into ice-cold artificial cerebrospinal fluid (aCSF) containing 5 uM SR101. Samples were then transferred from the operating room to the laboratory, rinsed with aCSF (10 minutes), and immediately imaged.
# SR101-labeled samples were placed in uncoated No. 1.5 glass-bottom dishes and positioned on the stage of a Zeiss 710 laser scanning confocal microscope equipped with a 40×/1.2 NA water emersion objection. We imaged SR101 by exciting the fluorophore with a 561 nm diode laser and collecting 595 nm-625 nm emission. The confocal aperature was set to Airy unit for all imaging. The laser and gain values were set to fill the dynamic range of the photomultiplier tube, and the frame size was set to sample at nyquist. Images were collected in 8 and 12 bit format absent of non-linear processing. An unstained adjacent tissue sample was imaged with each sample. In some cases, large field-of-view tiled and optically sectioned images were rapidly acquired using a Zeiss line-sweeping confocal microscope. Frame size for this system was fixed to 512×512 by a linear charged coupled device (CCD) array.
# After we identified SR101's ability to rapidly label and differentiate astrocytoma cells and reactive astrocytes in animal models, we tested its utility as an intraoperative diagnostic agent. We determined the feasibility of intraoperatively identifying astrocytic brain tumors by confocal fluorescence imaging of fresh human brain tumor biopsies labeled with SR101. We screened samples from 60* patients with a total of 10 common human brain tumor types. The diagnosis as determined by traditional immunohistochemistry and paraffin-embedded hematoxylin and eosin histopathology was accepted as the final diagnosis for the purposes of comparison.
# Tissue samples were transported in artificial cerebrospinal fluid and imaged within 30-40 minutes of resection. We first found SR101 filled the cytoplasm of astrocytes in non-tumor burdened brain (FIG. 4A). Next, we studied tissue sampled from tumor margins and found SR101 filled the cytoplasm of reactive astrocytes and tumor cells in these regions (FIG. 4B). […] At higher magnification we observed that SR101 delineated some cell nuclei and identified nuclear atypia which is a common feature of some gliomas (FIG. 4C).
# [5] = system: GFAP-positive astrocytoma cells (U251); experiment: Fixable SR101 co-labeling with GFAP in astrocytoma xenograft acute slices, confocal stereology; format: cell-based, human astrocytoma cells implanted in nude rats; conditions: for cells positive for fixable SR101 in astrocytoma tumor regions: tumor core, acute slices, GFAP and DAPI counterstain
# Experimental: Xenograft acute slices were incubated with the fixable version of SR101 (Texas Red Hydrazide; Sigma), washed at room temperature, and fixed with 4% paraformaldehyde for 12 hours at 4 degrees C. Slices were then rinsed in phosphate buffered saline, permeabilized with 0.3% triton, and blocked with CAS block (Invitrogen) (reference Pierre's paper). GBM xenograft slices were incubated 12-hours in anti-GFAP primary antibody (Millipore; 1:500), and Lymphoma sections were incubated 12-hours in anti-CD20 primary antibody (Millipore; 1:250). Sections were then rinsed and incubated with AlexaFluor488 secondary antibody (Invitrogen), followed by nuclear counterstaining with Dapi (Invitrogen). Fluorescently labeled sections were mounted on slides with vectashield (Vector labs) and No1.5 coverslips (VWR).
# We randomly selected one rostral, midline, and caudal acute slice from each brain containing tumor incubated with fixable SR101. Glioma slices were immunofluorescently stained for GFAP, and slices containing lymphoma were stained for CD20. Ten randomly selected 150 um^2 tumor areas in each slice were optically sectioned to 50 um with a Zeiss 710LSM. The first […] of each image stack was discarded to minimize counts from cells damaged during sectioning. A maximum intensity projection image was generated from the remaining 45 um, and a stereology dissector was overlaid onto the image. Cells within the dissector, and those in contact with its left and bottom edges were counted for either GFAP or CD20 positivity, and for SR101 positivity. The percent overlap between immunostaining and SR101 positivity was calculated. […]
# as §1
# [6] = system: human glioma cells in a rodent xenograft; experiment: In vivo labeling after intra-arterial injection of fixable SR101; set-up: species or system rat; conditions: brains processed two hours post-injection
# Description: Twenty days post-implantion, rats were deeply anesthetized using the previously described ketamin/xylazine mixture. The rats were then intra-arterially injected with Texas red hydrazide. Two hours post-injection brains were perfused, fixed, and sectioned on a cryostat. Sections were mounted on slides and imaged with a Zeiss LSM 710 confocal microscope.
SMILES,"co-localization with CD20 positive cells in lymphoma tumor regions ([1]; MC116 xenograft acute slices, fixable SR101, stereology)",SR101 signal / cells labeled in lymphoma regions ([1]; acute slices from nude rats implanted with human CNS lymphoma cells),SR101 labeling of cultured U251 astrocytoma cells [2],"mean fluorescence intensity (MFI), tumor ([3]; SR101-labeled tumor core, acute slice, 5 uM SR101 20 minutes)","mean fluorescence intensity (MFI), background ([3]; background of SR101-labeled tumor core image, acute slice)","difference in mean fluorescence intensity between U251 cells and reactive astrocytes ([3]; normalized to background, n=9 optical sections from 3 acute slices)",staining of human lymphoma ([4]; human biopsies),astrocytoma cases selectively stained ([4]; human biopsies versus final diagnosis),"staining of cells from astrocytoma tumor cores ([4]; human biopsies, 5 uM SR101)","staining of non-astrocytic tumor samples / other CNS neoplasms ([4]; human biopsies, 5 uM SR101)","labeling of low grade human oligodendroglioma samples ([4]; human biopsies, samples often GFAP positive)","co-localization with GFAP-positive cells in astrocytoma regions ([5]; U251 xenograft acute slices, fixable SR101, stereology)",in vivo labeling of tumor cells and tumor margin [6],cells positive for fixable SR101 in astrocytoma tumor regions [5],cells positive for fixable SR101 in astrocytoma tumor regions ([5]; listed as Fixable-SR101)
"O=S(=O)([O-])c1cc(S(=O)(=O)O)ccc1C1=c2cc3c4c(c2Oc2c1cc1c5c2CCCN5CCC1)CCC[N+]=4CCC3 [SR101, Sulforhodamine 101]",1.97%,minimal; also recorded: small number of cells,filled the cytoplasm of the cultured cell and clearly delineated cell nuclei,102.84,8.74,no statistically significant difference; also recorded: did not differ,negative; also recorded: failed to stain,14 of 15,strong cytoplasmic staining,did not stain; also recorded: non-specific background staining,does not stain; also recorded: did not label,79.6%,,,
"NNS(=O)(=O)c1ccc(C2=c3cc4c5c(c3Oc3c2cc2c6c3CCCN6CCC2)CCC[N+]=5CCC4)c(S(=O)(=O)[O-])c1 [fixable SR101, Texas Red Hydrazide]",,,,,,,,,,,,,specific in vivo labeling of human glioma cells,majority of cells were positive,labeled the majority of cells
